From patent US20200093821A1, “Pharmaceutical Compositions of a Benzothiophene Compound” (Hexal AG, priority 2016, published 2020)

What was measured:
[1] = UV irradiation of suspensions in oils, HPLC analysis; format: physicochemical; settings: irradiated 4 hours; for Brexpiprazole (area) / Compound I (area) / Compound II (area): HPLC
Procedure: [table] Suspensions of brexpiprazole anhydrate or brexpiprazole dihydrate (about 10 mg per experiment) in different oils (about 105 mg per suspension) were prepared and irradiated for 4 hours.

[2] = UV exposure of solid brexpiprazole forms (Atlas Suntester XLS+); format: physicochemical; settings: 60 h Suntester
Source text: Brexpiprazole anhydrate and brexpiprazole dihydrate were respectively exposed to UV-radiation using an appropriate illumination device (Atlas Suntester XLS+) at 250 W/m^2 for 60 hrs, which corresponds to a total UV light intensity of […].

[3] = UV lamp irradiation of brexpiprazole solution in toluene/methanol; format: physicochemical
Procedure: For the structure determination of the compound of formula II in Example 2 it was therefore necessary to produce larger quantities of that compound. […] The suspension was heated to 50° C. After stirring for 10 minutes, a clear solution was obtained. The solution was put into a transparent glass vial and irradiated for 18 h by a UV lamp (UVHQ 250 Z by “UV Technik Speziallampen”; radiation strength UVC/UVB/UVA: 38 W at 200 nm-280 nm; 20 W at 280 nm-315 nm; 18 W at 315 nm-400 nm). A light brown, clear solution was obtained. A mixture of brexpiprazole and compound II was obtained (19:81 area %).

[4] = molecular target: T1, serotonin 5-HT1A receptors (Homo sapiens, UniProt P08908); settings: cited from earlier work
T1 sequence (P08908 1-422): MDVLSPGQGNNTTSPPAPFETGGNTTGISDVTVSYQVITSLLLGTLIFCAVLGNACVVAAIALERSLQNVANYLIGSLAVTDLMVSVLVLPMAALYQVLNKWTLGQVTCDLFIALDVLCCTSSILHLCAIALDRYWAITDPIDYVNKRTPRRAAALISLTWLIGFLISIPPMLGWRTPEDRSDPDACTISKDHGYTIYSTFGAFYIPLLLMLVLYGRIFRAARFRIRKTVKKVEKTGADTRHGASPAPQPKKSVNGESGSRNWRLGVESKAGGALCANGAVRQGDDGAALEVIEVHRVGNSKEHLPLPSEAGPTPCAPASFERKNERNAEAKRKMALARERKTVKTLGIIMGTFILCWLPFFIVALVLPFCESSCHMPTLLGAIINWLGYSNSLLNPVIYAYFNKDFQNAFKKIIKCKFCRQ

[5] = molecular target: serotonin 5-HT2A receptors (Homo sapiens, UniProt P28223); settings: cited from earlier work
dopamine D2 receptors = dopamine D2 receptors (Homo sapiens, UniProt P14416); settings: cited from earlier work
[6] = suspension in castor oil, listed as Brx. Anhydrate
[7] = suspension in peanut oil, listed as Brx. Anhydrate
[8] = suspension in castor oil, listed as Brx. Dihydrate
[9] = suspension in peanut oil, listed as Brx. Dihydrate
[10] = toluene/methanol solution, UV lamp 18 h

Chain of dopamine D2 receptors (P14416 whole entry): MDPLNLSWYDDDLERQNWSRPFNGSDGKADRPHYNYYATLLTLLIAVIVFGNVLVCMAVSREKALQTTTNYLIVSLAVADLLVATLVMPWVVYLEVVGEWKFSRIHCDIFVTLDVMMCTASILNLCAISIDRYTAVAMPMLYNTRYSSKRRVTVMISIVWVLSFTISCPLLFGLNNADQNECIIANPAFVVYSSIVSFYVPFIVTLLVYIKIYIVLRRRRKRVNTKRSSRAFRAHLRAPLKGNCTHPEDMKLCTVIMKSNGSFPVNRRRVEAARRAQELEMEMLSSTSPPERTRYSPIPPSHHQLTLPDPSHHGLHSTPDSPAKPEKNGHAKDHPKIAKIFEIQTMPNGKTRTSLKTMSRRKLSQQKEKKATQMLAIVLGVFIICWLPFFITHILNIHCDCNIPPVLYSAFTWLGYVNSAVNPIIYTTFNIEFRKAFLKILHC
Chain of serotonin 5-HT2A receptors (P28223 whole entry): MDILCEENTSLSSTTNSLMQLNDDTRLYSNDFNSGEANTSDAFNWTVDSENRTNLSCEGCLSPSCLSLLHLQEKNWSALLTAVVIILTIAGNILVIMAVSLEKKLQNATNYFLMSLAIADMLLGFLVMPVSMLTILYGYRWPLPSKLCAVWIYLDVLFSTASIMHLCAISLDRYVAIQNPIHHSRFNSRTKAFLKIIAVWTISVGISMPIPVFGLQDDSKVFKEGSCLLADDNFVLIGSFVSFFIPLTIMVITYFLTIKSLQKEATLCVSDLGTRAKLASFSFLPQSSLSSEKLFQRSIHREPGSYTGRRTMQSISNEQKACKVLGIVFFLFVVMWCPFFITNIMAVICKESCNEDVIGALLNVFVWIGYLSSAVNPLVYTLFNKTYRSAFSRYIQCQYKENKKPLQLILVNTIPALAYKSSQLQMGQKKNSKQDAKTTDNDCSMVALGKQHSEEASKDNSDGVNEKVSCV

**Q.** What does the source list for `O=c1ccc2ccc(OCCCCN3CCN(c4cccc5sccc45)CC3)cc2[nH]1` [Brexpiprazole Anhydrate]?
**A.** Brexpiprazole (area) [1, 6]: 99.6%; Compound I (area) [1, 6]: 0.0%; Compound II (area) [1, 6]: 0.4%; Brexpiprazole (area) ([1]; suspension in corn oil): 99.8%; Compound I (area) ([1]; suspension in corn oil): 0.0%; Compound II (area) ([1]; suspension in corn oil): 0.2%; Brexpiprazole (area) [1, 7]: 99.8%; Compound I (area) [1, 7]: 0.0%; Compound II (area) [1, 7]: 0.2%

**Q.** With `O=c1ccc2ccc(OCCCCN3CCN(c4cccc5sccc45)CC3)cc2[nH]1` [Brexpiprazole Dihydrate] as the compound, how does the “sensitivity to UV-induced dimerization vs brexpiprazole anhydrate” value ([1]; oil suspensions) read?
**A.** Its value is “more sensitive”.

**Q.** And the “Brexpiprazole (area)” value [1, 8]?
**A.** The value was 61.7%.

**Q.** What about the “Compound I (area)” value [1, 8] of the same compound?
**A.** Its value is 35.1%.

**Q.** What about the “Compound II (area)” value [1, 8] of the same compound?
**A.** Its value is 3.2%.

**Q.** What about the “Brexpiprazole (area)” value ([1]; suspension in corn oil) of the same compound?
**A.** The value was 64.9%.

**Q.** What about the “Compound I (area)” value ([1]; suspension in corn oil) of the same compound?
**A.** Its value is 32.2%.

**Q.** What about the “Compound II (area)” value ([1]; suspension in corn oil) of the same compound?
**A.** Its value is 3.0%.

**Q.** And the “Brexpiprazole (area)” value [1, 9]?
**A.** Its value is 64.3%.

**Q.** What about the “Compound I (area)” value [1, 9] of the same compound?
**A.** Its value is 32.4%.

**Q.** What about the “Compound II (area)” value [1, 9] of the same compound?
**A.** Its value is 3.3%.

**Q.** And the “sensitivity to UV-induced dimerization vs anhydrate form” value [2]?
**A.** The value was “significantly more sensitive”.

**Q.** Which results are given for `O=c1ccc2ccc(OCCCCN3CCN(c4cccc5sccc45)CC3)cc2[nH]1` [Brexpiprazole, 7-[4-[4-(1-Benzothiophen-4-yl)piperazin-1-yl]butoxy]quinolin-2(1H)-one]?
**A.** sensitivity to UV-radiation vs brexpiprazole anhydrate ([3]; brexpiprazole in solution): significantly more sensitive; stability in control experiment ([3]; solution protected from UV light, vial wrapped in aluminum foil): remained stable; brexpiprazole remaining in mixture [3, 10]: 19 area %; compound II formed in mixture [3, 10]: 81 area %; activity at serotonin 5-HT1A receptors [4]: partial agonist activity; activity at serotonin 5-HT2A receptors [5]: antagonist activity; activity at dopamine D2 receptors (dopamine D2 receptors): partial agonist activity
